US10144732B2 (BIOGEN MA INC., priority 2014, dated 2018)
Structures can show the parent of a compound that is named as a salt.

Molecular target: T1, Human ATX protein (Homo sapiens, UniProt Q13822)
T1 construct: made in house
Assay: ATX biochemical assay (FRET, FS-3 substrate)
Conditions: FRET assay, FS-3 2 μM, ATX 1.0 μg/mL, 30 minutes preincubation, 2 hours reaction at room temperature; read-out: IC50
In short: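 In-house human ATX (1.0 μg/mL final) was preincubated with compound for 30 min at room temperature in Tris buffer pH 7.4 with 1 mg/mL fatty acid free-BSA. FS-3 substrate (2 μM final) was then hydrolysed for 2 hours at room temperature, protected from light, and read as fluorescence at ex 485/em 538 nm.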

SMILES	IC50
O=C(C1CCn2cncc2C1)N1CCc2c(C(F)(F)F)nn(Cc3ccc(F)cc3)c2C1 (centres unmarked) [Example 1-20, (1-(4-Fluorobenzyl)-3-(trifluoromethyl)-4,5-dihydro-1H-pyrazolo[3,4-c]pyridin-6(7H)-yl)(5,6,7,8-tetrahydroimidazo[1,5-a]pyridin-7-yl)methanone]	> 10000 nM
N#C[C@H]1CC[C@H](CC(=O)N2CCc3c(C(F)(F)F)nn(Cc4ccc(F)cc4)c3C2)CC1 [Example 21-2, trans-4-(2-(1-(4-Fluorobenzyl)-3-(trifluoromethyl)-4,5-dihydro-1H-pyrazolo[3,4-c]pyridin-6(7H)-yl)-2-oxoethyl)cyclohexanecarbonitrile]	≤ 100 nM
CC1(C)CC(CC(=O)N2CCc3c(C(F)(F)F)nn(Cc4ccc(Cl)cc4F)c3C2)CCN1 (centres unmarked) [Example 9-6, 1-(1-(4-Chloro-2-fluorobenzyl)-3-(trifluoromethyl)-4,5-dihydro-1H-pyrazolo[3,4-c]pyridin-6(7H)-yl)-2-(2,2-dimethylpiperidin-4-yl)ethanone TFA salt]	≤ 100 nM
O=C(C[C@H]1CC[C@H](C(=O)O)CC1)N1CCc2c(C(F)(F)F)nn(CCc3ccccc3)c2C1 [Example 5-16, trans-4-(2-Oxo-2-(1-phenethyl-3-(trifluoromethyl)-4,5-dihydro-1H-pyrazolo[3,4-c]pyridin-6(7H)-yl)ethyl)cyclohexanecarboxylic acid]	100 to 250 nM
O=C(O)[C@H]1CC[C@H](C(=O)N2CCc3c(C(F)(F)F)nn(Cc4ccc(F)cc4)c3C2)CC1 [Example 7-17, trans-4-(1-(4-Fluorobenzyl)-3-(trifluoromethyl)-4,5,6,7-tetrahydro-1H-pyrazolo[3,4-c]pyridine-6-carbonyl)cyclohexanecarboxylic acid]	≤ 100 nM
CCOC(=O)[C@H]1CC[C@H](CC(=O)N2CCc3c(C(F)(F)F)nn(CC4CCC(C)CC4)c3C2)CC1 (stereo partly drawn) [Example 1-48, trans-Ethyl 4-(2-(1-((4-methylcyclohexyl)methyl)-3-(trifluoromethyl)-4,5-dihydro-1H-pyrazolo[3,4-c]pyridin-6(7H)-yl)-2-oxoethyl) cyclohexanecarboxylate]	≤ 100 nM
O=C(O)C1CCCN(CC(=O)N2CCc3c(C(F)(F)F)nn(Cc4ccc(Cl)cc4F)c3C2)CC1 (centres unmarked) [Example 13-20, 1-(2-(1-(4-Chloro-2-fluorobenzyl)-3-(trifluoromethyl)-4,5-dihydro-1H-pyrazolo[3,4-c]pyridin-6(7H)-yl)-2-oxoethyl)azepane-4-carboxylic acid TFA salt]	≤ 100 nM
CCOC(=O)C1CCN(C(C)C(=O)N2CCc3c(C(F)(F)F)nn(Cc4ccc(Cl)cc4F)c3C2)CC1 (centres unmarked) [Example 12-6, Ethyl 1-(1-(1-(4-chloro-2-fluorobenzyl)-3-(trifluoromethyl)-4,5-dihydro-1H-pyrazolo[3,4-c]pyridin-6(7H)-yl)-1-oxopropan-2-yl)piperidine-4-carboxylate]	≤ 100 nM
O=C(CN[C@H]1C[C@@H](C(=O)O)C1)N1CCc2c(C(F)(F)F)nn(Cc3ccc(F)cc3)c2C1 [Example 13-28, cis-3-(2-(1-(4-Fluorobenzyl)-3-(trifluoromethyl)-4,5-dihydro-1H-pyrazolo[3,4-c]pyridin-6(7H)-yl)-2-oxoethylamino)cyclobutanecarboxylic acid TFA salt]	≤ 100 nM
CCOC(=O)[C@H]1CC[C@H](CC(=O)N2CCc3c(C(F)F)nn(Cc4ccc(F)cc4)c3C2)CC1 [Example 1-38, trans-Ethyl 4-(2-(3-(difluoromethyl)-1-(4-fluorobenzyl)-4,5-dihydro-1H-pyrazolo[3,4-c]pyridin-6(7H)-yl)-2-oxoethyl)cyclohexanecarboxylate]	≤ 100 nM
O=C(O)CCC(=O)N1CCc2c(C(F)(F)F)nn(Cc3ccc(Cl)cc3F)c2C1 [Example 14-3, 4-(1-(4-Chloro-2-fluorobenzyl)-3-(trifluoromethyl)-4,5-dihydro-1H-pyrazolo[3,4-c]pyridin-6(7H)-yl)-4-oxobutanoic acid]	≤ 100 nM

Next, values leading:

IC50	SMILES
≤ 100 nM	O=C(C[C@H]1CC[C@H](C(=O)O)CC1)N1CCc2c(C(F)(F)F)nn(Cc3ccsc3)c2C1 [Example 5-27, trans-4-(2-Oxo-2-(1-(thiophen-3-ylmethyl)-3-(trifluoromethyl)-4,5-dihydro-1H-pyrazolo[3,4-c]pyridin-6(7H)-yl)ethyl)cyclohexanecarboxylic acid]
> 10000 nM	CCOC(=O)CCNCC(=O)N1CCc2c(C(F)(F)F)nn(Cc3ccc(F)cc3)c2C1 [Example 12-9, Ethyl 3-(2-(1-(4-fluorobenzyl)-3-(trifluoromethyl)-4,5-dihydro-1H-pyrazolo[3,4-c]pyridin-6(7H)-yl)-2-oxoethylamino)propanoate]
≤ 100 nM	COC(=O)C1CCN(CC(=O)N2CCc3c(C(F)(F)F)nn(Cc4ccc(F)cc4)c3C2)C1 (centres unmarked) [Example 12-7, Methyl 1-(2-(1-(4-fluorobenzyl)-3-(trifluoromethyl)-4,5-dihydro-1H-pyrazolo[3,4-c]pyridin-6(7H)-yl)-2-oxoethyl)pyrrolidine-3-carboxylate]
≤ 100 nM	CN(C(=O)N1CCc2c(C(F)(F)F)nn(Cc3ccc(Cl)cc3F)c2C1)[C@H]1CC[C@H](C(=O)O)CC1 [Example 5-10, trans-4-(1-(4-Chloro-2-fluorobenzyl)-N-methyl-3-(trifluoromethyl)-4,5,6,7-tetrahydro-1H-pyrazolo[3,4-c]pyridine-6-carboxamido)cyclohexanecarboxylic acid]
≤ 100 nM	CN(C(=O)N1CCc2c(C(F)(F)F)nn(Cc3ccc(Cl)cc3F)c2C1)[C@H]1CC[C@@H](C(=O)O)CC1 [Example 5-9, cis-4-(1-(4-Chloro-2-fluorobenzyl)-N-methyl-3-(trifluoromethyl)-4,5,6,7-tetrahydro-1H-pyrazolo[3,4-c]pyridine-6-carboxamido)cyclohexanecarboxylic acid]
≤ 100 nM	CC(c1ccc(F)cc1)n1nc(C(F)(F)F)c2c1CN(C(=O)C[C@H]1CC[C@@H](C(=O)O)CC1)CC2 (stereo partly drawn) [Example 5-20, cis-4-(2-(1-(1-(4-Fluorophenyl)ethyl)-3-(trifluoromethyl)-4,5-dihydro-1H-pyrazolo[3,4-c]pyridin-6(7H)-yl)-2-oxoethyl)cyclohexanecarboxylic acid]
≤ 100 nM	O=C(CC1CCN(c2ccncc2)CC1)N1CCc2c(C(F)(F)F)nn(Cc3ccc(F)cc3)c2C1 [Example 18-4, 1-(1-(4-Fluorobenzyl)-3-(trifluoromethyl)-4,5-dihydro-1H-pyrazolo[3,4-c]pyridin-6(7H)-yl)-2-(1-(pyridin-4-yl)piperidin-4-yl)ethanone TFA salt]
≤ 100 nM	CC(C)N1CCC(CC(=O)N2CCc3c(C(F)(F)F)nn(Cc4ccc(Cl)cc4F)c3C2)CC1 [Example 11-2, 1-(1-(4-Chloro-2-fluorobenzyl)-3-(trifluoromethyl)-4,5-dihydro-1H-pyrazolo[3,4-c]pyridin-6(7H)-yl)-2-(1-isopropylpiperidin-4-yl)ethanone HCl salt]
≤ 100 nM	COC(=O)C1CC2CCC(C1)C2CC(=O)N1CCc2c(C(F)(F)F)nn(Cc3ccc(Cl)cc3F)c2C1 (centres unmarked) [Example 1-27, Methyl 8-(2-(1-(4-chloro-2-fluorobenzyl)-3-(trifluoromethyl)-4,5-dihydro-1H-pyrazolo[3,4-c]pyridin-6(7H)-yl)-2-oxoethyl)bicyclo[3.2.1]octane-3-carboxylate]
